Several values for one entry are separate records, joined by “and”; a condition that tells them apart may be missing. Equal entries are not always repeated.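 Values below derive from 48-hour exposures of cells grown in 96-well plates, with endpoints linearly interpolated between the two concentrations bracketing the appropriate inhibition level. GI50: concentration for 50% inhibition of growth. Definition used: TGI = concentration required for complete inhibition of growth.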
Test system: MDA-MB-468 breast
Assay: NCI tumour cell line growth inhibition, 48 h

SMILES	GI50	TGI [µM]
CN1c2ccccc2C(C)(C)C12CC(c1ccc(Cl)c(S(=O)(=O)N3CCCC3)c1)=NO2 (stereo unspecified)	> 100000 nM	> 100
NCC(=O)CCC(=O)O	> 100000 nM	> 100
O=C1C(=O)c2c(nc3ncccn23)-c2ccccc21	205 nM	0.555
COc1ccc(Cn2cc(Cn3c(=O)c(-c4nc5ccccc5[nH]4)cc4ccccc43)nn2)c(OC)c1OC	112 nM and 254 nM	
c1ccc2c(c1)ccc1c3ccccc3ccc21	8590 nM	> 50
CC12CCC(O)CC1CCC1C2CCC2(C)C(C3=CC(=O)OC3)CCC12 (stereo unspecified)	5290 nM	> 42.9
C#CC#CC#CC#CC#CC#CC#CC#CCC1OC[C@H](COC(=O)O[C@@H](C(=O)O[C@H]2C[C@@]3(O)[C@@H](OC(=O)c4ccccc4)[C@@H]4[C@]5(OC(C)=O)CO[C@@H]5C[C@H](O)[C@@]4(C)C(=O)[C@H](OC(C)=O)C(=C2C)C3(C)C)[C@@H](NC(=O)c2ccccc2)c2ccccc2)O1 (stereo partly specified)	139 nM	0.922
Clc1ccc(-c2cn(-c3ccccc3)c(-c3ccccc3)n2)c(Cl)c1	> 50000 nM	> 50
COc1cc(/C=C/C(=O)c2cc(OC)c(OC)c(OC)c2)cc(OC)c1OC	3070 nM	14.8
Oc1ccc(-c2nc3ccc4[nH]ncc4c3c3c2CCCC3)c2cccnc12	787 nM	2.02
C=C1C(=O)O[C@H]2[C@H]1CC/C(COC(=O)C(=O)c1cn(C)c3ccc(OC)cc13)=C\CC[C@@]1(C)O[C@@H]21	1730 nM	2.92
COc1ccc(-c2[nH]ncc2-c2cc(OC)c(OC)c(OC)c2)cc1	< 10 nM	5.56
COc1ccc(C(=O)N/N=C/c2ccc(O)cc2O)cc1Nc1ccnc(C(F)(F)F)c1	365 nM	68.1
CN(C)CCCC(=O)Nc1ccc(Cn2nnc3c2C(=O)c2nnn(Cc4ccc(NC(=O)CCCN(C)C)cc4)c2C3=O)cc1	1300 nM	2.97
Nc1c(O)c(S(=O)(=O)O)c(O)c2c1C(=O)c1ccccc1C2=O	2100 nM	5.98
COc1ccc2sc3c(NCCCNCCO)nc4ccccc4c3c(=O)c2c1	1730 nM	3.41
CC(C)(C)c1ccc(C(=O)Nc2sc3c(c2C(N)=O)CC/C(=N\O)C3)cc1	3060 nM	9.38
Cc1ccccc1NC(=O)c1sc2nc3c(cc2c1N)C(=O)CCC3	529 nM	6.21
CCC(C)CC(CC)NCCN1CCN(C(CC)CC(C)CC)C1=S (stereo unspecified)	1540 nM	2.89
CCOC(=O)c1cnc2c(cnn2CC)c1NN=C(C)C	31300 nM	> 100
CC1(C)CC[C@]2(C(=O)O)CC[C@]3(C)[C@H](CC[C@@H]4[C@@]5(C)CCC(=O)C(C)(C)[C@@H]5CC[C@]43C)[C@H]2[C@H]1OC(=O)C(F)(F)F	5830 nM	21.1
